Results on three compounds are retold here after BindingDB's records for patent US10428104 (Pfizer Inc., 2019).

Sequence of Protein arginine N-methyltransferase 5 (O14744 whole entry): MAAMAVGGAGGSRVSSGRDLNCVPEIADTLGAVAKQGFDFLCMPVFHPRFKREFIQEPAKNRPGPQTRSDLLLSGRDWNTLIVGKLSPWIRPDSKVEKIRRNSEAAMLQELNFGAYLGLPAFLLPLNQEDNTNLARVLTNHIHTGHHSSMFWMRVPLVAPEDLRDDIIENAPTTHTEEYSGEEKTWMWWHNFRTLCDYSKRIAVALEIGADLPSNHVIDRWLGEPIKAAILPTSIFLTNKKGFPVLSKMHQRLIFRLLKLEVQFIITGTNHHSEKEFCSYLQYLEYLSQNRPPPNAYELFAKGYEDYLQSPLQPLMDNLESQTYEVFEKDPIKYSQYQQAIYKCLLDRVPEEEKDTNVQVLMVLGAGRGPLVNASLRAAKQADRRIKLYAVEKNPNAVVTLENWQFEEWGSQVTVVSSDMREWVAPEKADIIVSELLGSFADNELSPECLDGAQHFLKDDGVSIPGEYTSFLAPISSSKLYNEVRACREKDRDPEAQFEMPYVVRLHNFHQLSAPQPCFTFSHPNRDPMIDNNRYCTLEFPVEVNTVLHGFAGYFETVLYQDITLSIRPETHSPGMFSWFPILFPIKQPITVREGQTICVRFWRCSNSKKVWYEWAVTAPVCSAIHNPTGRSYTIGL

The target of the assay is Protein arginine N-methyltransferase 5 (Homo sapiens, UniProt O14744). In words: PRMT5 assay. The procedure:
Following dilution, 1 ul was added to an empty 96-well microtiter plate. PRMT5/MEP50 protein complex was combined with H4(1-21) peptide ([…]) in PRMT5 assay buffer (50 mM Tris pH 8.5, 50 mM NaCl, 5 mM MgCl2, 1 mM EDTA, 1 mM TCEP) and 44 ul was added to the microtiter plate containing compound. S-Adenosyl-L-methionine (SAM) was prepared by combining 3H labelled SAM with unlabelled SAM in PRMT5 assay buffer such that the final SAM concentration was 10 uM and the specific activity was 0.2 uCi/ul. The reaction was initiated by adding 5 ul of SAM stock to the microtiter plate. The final reaction conditions were 10 nM PRMT5/MEP50 complex, 200 nM peptide and 1 uM SAM. Following a 25 minute incubation at room temperature, the reaction was stopped with the addition of 100 uL of 20% TCA. The 3H-peptide product was captured using a 96-well filter plate (MSIPN4B, Millipore) and washed 5 times with PBS buffer. Scintillation fluid (100 ul) was added to the dried filter plate and counted in a liquid scintillation counter. IC50 values were determined by fitting the data to the standard 4-parameter dose response equation using Pfizer proprietary software.
The IC50 is the concentration that gives 50% inhibition. A lower IC50 goes with greater potency in that assay. Consider `Cc1ncnc2c1ccn2[C@@H]1O[C@H]([C@H](O)c2cnn(C)c2)[C@@H](O)[C@H]1O` [US10428104, Example 50], for which the IC50 amounted to 0.05 µM. This lies in the double-digit nanomolar range. The result for `Cc1ncnc2c1ccn2[C@@H]1O[C@H]([C@@H](O)c2cnn(C)c2)[C@@H](O)[C@H]1O` [US10428104, Example 51] reads 14.7 µM; that for `Cc1ncnc2c1ccn2[C@@H]1O[C@H]([C@H](O)c2cccc3cc[nH]c23)[C@@H](O)[C@H]1O` [US10428104, Example 82], 0.15 µM.
